One experiment deals with T1, hTLR8 (Homo sapiens, UniProt Q9NR97).
T1 construct: host or cells: HEK-Blue hTLR8 cells (HEK293-derived, own knowledge)
T1 sequence (Q9NR97 27-1041): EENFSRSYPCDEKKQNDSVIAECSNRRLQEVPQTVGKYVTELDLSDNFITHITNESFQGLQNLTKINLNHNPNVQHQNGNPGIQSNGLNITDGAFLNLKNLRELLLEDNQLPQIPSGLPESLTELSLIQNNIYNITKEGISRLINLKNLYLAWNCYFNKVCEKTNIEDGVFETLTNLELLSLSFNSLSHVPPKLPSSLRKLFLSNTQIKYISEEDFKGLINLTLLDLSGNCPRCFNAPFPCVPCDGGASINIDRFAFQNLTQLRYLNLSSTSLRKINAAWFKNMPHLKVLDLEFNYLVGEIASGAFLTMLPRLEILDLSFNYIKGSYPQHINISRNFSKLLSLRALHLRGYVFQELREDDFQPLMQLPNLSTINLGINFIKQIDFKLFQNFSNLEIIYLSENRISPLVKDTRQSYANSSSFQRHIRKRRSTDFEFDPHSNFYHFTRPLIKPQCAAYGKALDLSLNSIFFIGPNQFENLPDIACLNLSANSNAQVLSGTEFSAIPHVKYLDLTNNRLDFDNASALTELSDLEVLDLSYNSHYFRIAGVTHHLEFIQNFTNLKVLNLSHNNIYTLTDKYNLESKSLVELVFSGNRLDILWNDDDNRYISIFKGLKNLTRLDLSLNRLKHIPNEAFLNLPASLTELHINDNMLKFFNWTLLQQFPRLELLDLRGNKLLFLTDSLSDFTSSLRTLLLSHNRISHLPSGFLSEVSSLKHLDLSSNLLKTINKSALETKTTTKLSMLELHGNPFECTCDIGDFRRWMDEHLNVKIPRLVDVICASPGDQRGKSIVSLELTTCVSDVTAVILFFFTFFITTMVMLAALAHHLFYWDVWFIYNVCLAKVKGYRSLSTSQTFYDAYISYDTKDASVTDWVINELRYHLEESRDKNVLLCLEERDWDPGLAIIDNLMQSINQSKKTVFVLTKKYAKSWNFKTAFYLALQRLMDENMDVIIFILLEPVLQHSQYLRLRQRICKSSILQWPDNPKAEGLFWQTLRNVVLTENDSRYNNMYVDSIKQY
The experiment is described as follows: Human TLR8 Reporter Assay. Format: cell-based. Particulars: HEK-Blue hTLR8 cells, 16 hours, normalized to tl8-506 (1 μM) and DMSO. The essentials:
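HEK-Blue hTLR8 cells (20,000/well) incubated 16 h at 37 °C with 10-point 3-fold compound dilutions in HEK-Blue Detection medium; reporter read as absorbance at 620 nm. Effects normalized between DMSO and tl8-506 (1 μM); EC50 from 4-parameter fit.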

The next experiment deals with T2, hTLR7 (Homo sapiens, UniProt Q9NYK1).
T2 construct: host or cells: HEK-Blue hTLR7 cells (HEK293-derived, own knowledge)
T2 sequence (Q9NYK1 27-1049): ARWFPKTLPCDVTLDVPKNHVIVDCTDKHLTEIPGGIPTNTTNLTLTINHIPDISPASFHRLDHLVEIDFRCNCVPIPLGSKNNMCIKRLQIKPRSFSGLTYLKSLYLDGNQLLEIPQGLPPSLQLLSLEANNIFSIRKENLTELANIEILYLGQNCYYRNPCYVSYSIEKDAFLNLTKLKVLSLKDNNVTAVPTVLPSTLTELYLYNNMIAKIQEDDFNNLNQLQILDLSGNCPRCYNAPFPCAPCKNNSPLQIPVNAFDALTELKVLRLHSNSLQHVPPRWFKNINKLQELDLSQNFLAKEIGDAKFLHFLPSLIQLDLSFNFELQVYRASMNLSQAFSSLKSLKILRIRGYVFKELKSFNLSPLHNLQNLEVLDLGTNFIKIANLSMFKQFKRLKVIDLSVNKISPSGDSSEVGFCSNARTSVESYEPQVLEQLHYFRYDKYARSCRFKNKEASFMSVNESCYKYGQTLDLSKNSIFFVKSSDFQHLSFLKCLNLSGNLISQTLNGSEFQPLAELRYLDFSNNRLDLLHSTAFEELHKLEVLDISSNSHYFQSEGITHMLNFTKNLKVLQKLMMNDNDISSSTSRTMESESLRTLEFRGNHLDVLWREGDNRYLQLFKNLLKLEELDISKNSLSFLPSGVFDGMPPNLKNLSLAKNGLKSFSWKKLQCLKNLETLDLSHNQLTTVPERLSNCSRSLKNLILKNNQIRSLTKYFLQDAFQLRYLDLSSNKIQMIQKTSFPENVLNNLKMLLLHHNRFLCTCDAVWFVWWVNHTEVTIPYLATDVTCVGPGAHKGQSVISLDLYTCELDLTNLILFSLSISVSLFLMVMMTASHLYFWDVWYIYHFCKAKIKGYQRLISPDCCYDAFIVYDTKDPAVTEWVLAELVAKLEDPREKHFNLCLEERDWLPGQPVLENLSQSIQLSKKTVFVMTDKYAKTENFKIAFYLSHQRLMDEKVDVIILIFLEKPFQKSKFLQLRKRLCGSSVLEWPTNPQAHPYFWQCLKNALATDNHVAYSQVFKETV
The experiment in a line: Human TLR7 Reporter Assay. The format is cell-based. The conditions noted are these: HEK-Blue hTLR7 cells, 16 hours, normalized to CL097 (6 μM) and DMSO. The essentials:
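HEK-Blue hTLR7 reporter cells (20,000/well) incubated 16 h at 37 °C with 10-point 3-fold compound dilutions; SEAP read by absorbance at 620 nm. Effects normalized between CL097 (6 μM) and DMSO controls; EC50 from 4-parameter fit.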
(In general: Reporter assays use an easily measured gene product as a stand-in for the process of interest.)

The term EC50 denotes the concentration needed to bring the measured effect to its halfway point. With `CCCCNc1nc(N)nc2cn(Cc3ccc(C(C)N(C)CCC)cc3OC)nc12` (stereo not drawn) [Compound 233], the EC50 at hTLR8 was 456 nM; on hTLR7, 32.3 nM.
For `CCCCNc1nc(N)nc2cn(Cc3ccc(C4CNCCN4)cc3OC)nc12` (stereo not drawn) [Compound 234], the EC50 was determined as 9820 nM at hTLR8 and 1490 nM on hTLR7.
In the case of `CCCCNc1nc(N)nc2cn(Cc3ccc4c(c3)CCC4N)nc12` (stereo not drawn) [Compound 235], the EC50 at hTLR8 was 2470 nM; at hTLR7 it was 361 nM.
Take `CCCCNc1nc(N)nc2cn(Cc3ccc(C4CCCN4)cc3OC)nc12` (stereo not drawn) [Compound 236]: the EC50 on hTLR8 was 2870 nM; on hTLR7, 241 nM.
Regarding `CCCCNc1nc(N)nc2cn(Cc3ccc(C4CCNC4)cc3OC)nc12` (stereo not drawn) [Compound 237], the EC50 was found to be 7250 nM at hTLR8 and 616 nM on hTLR7.
Take `CCCCNc1nc(N)nc2cn(Cc3ccc4c(c3)CCC4N)nc12` (stereo not drawn) [Compound 238]: the results for the EC50 on hTLR8 and on hTLR7 were 1880 nM and 254 nM, respectively.
In the case of `CCCCNc1nc(N)nc2cn(Cc3ccc(C4CCCN4)cc3OC)nc12` (stereo not drawn) [Compound 239], the EC50 on hTLR8 amounted to 2600 nM; at hTLR7, 154 nM.
As for `CCCCNc1nc(N)nc2cn(Cc3ccc(C(C)N(C)CCC)cc3OC)nc12` (stereo not drawn) [Compound 240], the concentration for a half-maximal effect (EC50) amounted to 1090 nM on hTLR8 and 50.7 nM at hTLR7.
Taken in the same sequence, the figures for `CCCCNc1nc(N)nc2cn(Cc3ccc(C(C)N(C)CCC)cc3OC)nc12` (stereo not drawn) [Compound 241] were 725 nM and 36 nM.
